Results on eleven molecules are retold here after ChEMBL document CHEMBL1201862, “PubChem BioAssay data set” (2004).

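All cell lines were grown in 96-well plates and treated with compound for 48 hours. GI50: concentration for 50% inhibition of growth.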 The source made the active and inactive calls. Cut-off read from the data, not from the text of the source: active = GI50 up to about 1.1 µM and inactive = higher.

Among the test systems are SN12C; A498; NCI-H226; SF-295; OVCAR-4; TK-10; NCI-H460; RXF 393; A549; HCT-15; K562; HOP-62; MOLT-4; CAKI-1; IGROV-1; HT-29; SF-268; EKVX; LOX IMVI; HCC 2998.
Common to all, as to experiment: inhibition of tumour cell growth, NCI panel, 48 h

Consider `O=C(O)/C(Cc1ccnc2ccccc12)=N\O`, for which the GI50 with SN12C, in the assay on A498, in the assay with NCI-H226, in the assay on SF-295, in the assay on OVCAR-4 and in the assay on TK-10 was > 100 µM (inactive) throughout. The GI50 in the assay on NCI-H460 was > 100 µM (inactive); in the assay with RXF 393, > 100 µM (inactive); in the assay with A549, > 100 µM (inactive); in the assay on HCT-15 it was more than 100 µM; in the assay with K562, > 100 µM (inactive); in the assay on HOP-62 it was > 100 µM (inactive). The GI50 in the assay with MOLT-4, in the assay with CAKI-1, in the assay with IGROV-1, in the assay with HT-29, in the assay on SF-268 and in the assay on EKVX was > 100 µM (inactive) in each case. The GI50 in the assay on LOX IMVI is > 100 µM (inactive).
For the molecule `COC(=S)OC1CC(n2cnc3c(N)ncnc32)OC1CO[Si](C)(C)C(C)(C)C` (stereo not given), the GI50 in the assay with SN12C was 20.4 µM (inactive); in the assay with A498, 22 µM (inactive); in the assay on NCI-H226, 21.8 µM (inactive); in the assay with SF-295, 17.1 µM (inactive); with OVCAR-4 it was 16.6 µM (inactive); in the assay with TK-10, 33.3 µM (inactive). In addition, the GI50 is 20.3 µM (inactive) in the assay on NCI-H460; 12.1 µM (inactive) with RXF 393; 16.8 µM in the assay with HCT-15; 2.75 µM (inactive) with K562; 16 µM (inactive) with HOP-62; 5.24 µM (inactive) in the assay on MOLT-4. Further, the GI50 is > 10 µM (inactive) in the assay on CAKI-1, 17.6 µM (inactive) with IGROV-1, 16.5 µM (inactive) in the assay with HT-29 and 39.7 µM (inactive) in the assay with LOX IMVI.
With `CC1Oc2c(c(O)cc3oc(=O)cc(-c4ccccc4)c23)C(=O)C1C` (stereo not given), the GI50 in the assay on SN12C, in the assay with A498, with NCI-H226, with SF-295, in the assay on TK-10 and in the assay with NCI-H460 was > 100 µM (inactive) throughout. Moreover, the GI50 was more than 100 µM in the assay on HCT-15; > 100 µM (inactive) in the assay on K562; > 100 µM (inactive) in the assay with MOLT-4; > 100 µM (inactive) in the assay with CAKI-1; > 100 µM (inactive) in the assay with IGROV-1; > 10 µM (inactive) with HT-29. For the same molecule, the GI50 in the assay on SF-268, with EKVX and with LOX IMVI was > 100 µM (inactive) throughout.
On to `COc1cccc(C2C(C(=O)O)=C(CO)Oc3cc4c(cc32)OCO4)c1OC` (stereo not given), for which the GI50 in the assay with SN12C, in the assay on A498, with NCI-H226, in the assay on SF-295, with TK-10 and in the assay with NCI-H460 was > 100 µM (inactive) in each case. Also, the GI50 with HCT-15 is more than 100 µM; in the assay with K562, > 100 µM (inactive); in the assay on MOLT-4, > 100 µM (inactive); in the assay on CAKI-1, > 100 µM (inactive); in the assay on IGROV-1, > 100 µM (inactive); in the assay on SF-268 it was > 100 µM (inactive). The GI50 in the assay on EKVX and in the assay on LOX IMVI was > 100 µM (inactive) each time.
Consider `O=C1OC(c2ccccc2)=N/C1=C\c1ccc(Oc2ccc(Cl)c(Cl)c2)cc1`, for which the GI50 with SN12C is 51.1 µM (inactive); in the assay with A498, > 100 µM (inactive); in the assay on SF-295 it was 76.4 µM (inactive); in the assay on HCC 2998, 50 µM (inactive); in the assay with TK-10, > 100 µM (inactive); in the assay on NCI-H460, 71.4 µM (inactive). Also, the GI50 with RXF 393 was 25.8 µM (inactive); in the assay on A549, 43.1 µM (inactive); with HCT-15, 43.2 µM; with K562, 24.4 µM (inactive); in the assay on HOP-62 it was 88.3 µM (inactive); with MOLT-4 it was 20.7 µM (inactive). Moreover, the GI50 in the assay with IGROV-1 is > 100 µM (inactive); in the assay with HT-29 it was 69 µM (inactive); with SF-268, 23.1 µM (inactive); with EKVX, 45.1 µM (inactive).
With `CCOC(=O)Cn1c(=O)c2cc(C)cc3c(Cl)nc4c(OC)c(OC)cc1c4c32`, the GI50 in the assay on NCI-H226, in the assay with SF-295, with HCC 2998, with OVCAR-4, with TK-10 and in the assay on NCI-H460 was > 100 µM (inactive) each time. Also, the GI50 in the assay on RXF 393 was 51.1 µM (inactive); with A549 it was > 100 µM (inactive); in the assay on HCT-15 it was more than 100 µM; in the assay on K562, > 100 µM (inactive); in the assay on HOP-62 it was > 100 µM (inactive); with MOLT-4 it was > 100 µM (inactive). Besides, the GI50 in the assay on CAKI-1 was > 100 µM (inactive); in the assay on IGROV-1, 71.8 µM (inactive); in the assay on HT-29, > 100 µM (inactive); in the assay on SF-268, 35.6 µM (inactive); in the assay on EKVX it was > 100 µM (inactive); in the assay with LOX IMVI, > 100 µM (inactive).
For the molecule `COc1cc(/C=C2\N=C(c3ccccc3)N(c3ccc(C(=O)c4ccccc4)cc3N3C(=O)/C(=C/c4cc(OC)c(OC)c(OC)c4)N=C3c3ccccc3)C2=O)cc(OC)c1OC`, the GI50 in the assay with SN12C was 23.1 µM (inactive); in the assay with A498, 12 µM (inactive); in the assay with SF-295, 11.7 µM (inactive); with HCC 2998, 2.94 µM (inactive); in the assay on OVCAR-4 it was 21.8 µM (inactive); in the assay with TK-10, 16.8 µM (inactive). The GI50 in the assay with NCI-H460 is 8.49 µM (inactive); with RXF 393, 11.2 µM (inactive); in the assay on A549 it was 13.7 µM (inactive); in the assay with HCT-15, 5.62 µM; in the assay on K562, 4.86 µM (inactive); in the assay with HOP-62, 20.7 µM (inactive). Besides, the GI50 was 4.97 µM (inactive) in the assay with MOLT-4; 22.2 µM (inactive) with CAKI-1; 15.7 µM (inactive) in the assay on IGROV-1; 29.1 µM (inactive) in the assay with HT-29; 20.3 µM (inactive) in the assay on SF-268; 24.8 µM (inactive) with EKVX. Moreover, the GI50 with LOX IMVI is 14.3 µM (inactive).
`COc1nc2cccc(C(O)c3ccccc3)c2nc1-c1ccccc1` (stereo not given): the GI50 with SN12C was 10.9 µM (inactive); in the assay with A498, 2.81 µM (inactive); in the assay with NCI-H226, 3.8 µM (inactive); in the assay with SF-295, 2.08 µM (inactive); with OVCAR-4, 10.1 µM (inactive); in the assay with TK-10, 22.3 µM (inactive). Also, the GI50 in the assay with NCI-H460 was 4.14 µM (inactive); with RXF 393, 3.64 µM (inactive); in the assay on A549 it was 4.88 µM (inactive); in the assay on HCT-15, 4.43 µM; with K562 it was 3.81 µM (inactive); with HOP-62, 3.78 µM (inactive). In addition, the GI50 in the assay on MOLT-4 is 5.11 µM (inactive); with CAKI-1, 5.05 µM (inactive); in the assay on IGROV-1 it was 5.09 µM (inactive); with HT-29, 5.18 µM (inactive); in the assay on SF-268 it was 9.06 µM (inactive); in the assay on EKVX, 4.08 µM (inactive). In addition, the GI50 with LOX IMVI is 6.24 µM (inactive).
On to `O=C(OCc1ccccc1)C(Cc1ccccc1)N(Cc1ccccc1)Cc1ccccc1` (stereo not given), for which the GI50 with SN12C is 53 µM (inactive); in the assay with A498 it was > 100 µM (inactive); in the assay with SF-295, > 100 µM (inactive); with HCC 2998, 35.7 µM (inactive); with OVCAR-4, 28.8 µM (inactive); in the assay with TK-10 it was > 100 µM (inactive). The GI50 was 35.1 µM (inactive) with NCI-H460; 46.9 µM (inactive) with RXF 393; 65.9 µM (inactive) in the assay on A549; 43.7 µM in the assay with HCT-15; 14.4 µM (inactive) in the assay with K562; > 100 µM (inactive) with HOP-62. Also, the GI50 with MOLT-4 was 18.5 µM (inactive); in the assay with CAKI-1, > 100 µM (inactive); in the assay with IGROV-1 it was > 100 µM (inactive); with HT-29 it was > 100 µM (inactive); with SF-268, > 100 µM (inactive); in the assay with EKVX it was > 100 µM (inactive).
Turning to `Cc1ccc(S(=O)(=O)N(CC(=O)O)c2ccccc2)cc1`, the GI50 with SN12C, with A498, in the assay on SF-295, in the assay on HCC 2998, in the assay on OVCAR-4 and in the assay with TK-10 was > 100 µM (inactive) each time. Moreover, the GI50 in the assay on NCI-H460 was > 100 µM (inactive); in the assay on RXF 393, > 100 µM (inactive); in the assay with A549 it was > 100 µM (inactive); with HCT-15, more than 100 µM; in the assay with K562 it was > 100 µM (inactive); in the assay with MOLT-4, > 100 µM (inactive). Moreover, the GI50 in the assay on CAKI-1, in the assay on IGROV-1, in the assay with HT-29, with SF-268, in the assay with EKVX and in the assay with LOX IMVI was > 100 µM (inactive) throughout.
Consider `Cc1cc(C)cc(Sc2c([N+](=O)[O-])ncn2C)c1`, for which the GI50 with SN12C is 16.4 µM (inactive); in the assay with A498 it was 20.9 µM (inactive); with NCI-H226, 6.03 µM (inactive); in the assay on SF-295 it was 21.9 µM (inactive); with HCC 2998 it was 25 µM (inactive); in the assay on OVCAR-4 it was 15.4 µM (inactive). Besides, the GI50 is 23 µM (inactive) in the assay with TK-10; 18.2 µM (inactive) with NCI-H460; 26.6 µM (inactive) with A549; 11.2 µM (inactive) with K562; > 100 µM (inactive) with HOP-62; 5.79 µM (inactive) in the assay with MOLT-4. The GI50 was 25.9 µM (inactive) in the assay with CAKI-1; 20.8 µM (inactive) in the assay on IGROV-1; 16.2 µM (inactive) in the assay on HT-29; 14.9 µM (inactive) in the assay on SF-268; 27.7 µM (inactive) with EKVX; 11.5 µM (inactive) in the assay with LOX IMVI.
